From BindingDB's records for doi:10.1021/jm800940u (Schering-Plough Research Institute, 2009) come the findings set out here.

The target of this assay is Genome polyprotein (Hepatitis C virus genotype 1a (isolate H77), UniProt P27958). Kind of assay: Continuous Spectrophotometric Assay. Here is the method: Proteolytic cleavage of the ester linkage between the Nva (L-norvaline) and the chromophore (PAP) was monitored for change in absorbance at 370 nm. Initial velocities were determined using linear regression and kinetic constants were obtained by fitting the data to the Michaelis-Menten equation.
Sequence of Genome polyprotein (P27958 1027-1657 limits assumed): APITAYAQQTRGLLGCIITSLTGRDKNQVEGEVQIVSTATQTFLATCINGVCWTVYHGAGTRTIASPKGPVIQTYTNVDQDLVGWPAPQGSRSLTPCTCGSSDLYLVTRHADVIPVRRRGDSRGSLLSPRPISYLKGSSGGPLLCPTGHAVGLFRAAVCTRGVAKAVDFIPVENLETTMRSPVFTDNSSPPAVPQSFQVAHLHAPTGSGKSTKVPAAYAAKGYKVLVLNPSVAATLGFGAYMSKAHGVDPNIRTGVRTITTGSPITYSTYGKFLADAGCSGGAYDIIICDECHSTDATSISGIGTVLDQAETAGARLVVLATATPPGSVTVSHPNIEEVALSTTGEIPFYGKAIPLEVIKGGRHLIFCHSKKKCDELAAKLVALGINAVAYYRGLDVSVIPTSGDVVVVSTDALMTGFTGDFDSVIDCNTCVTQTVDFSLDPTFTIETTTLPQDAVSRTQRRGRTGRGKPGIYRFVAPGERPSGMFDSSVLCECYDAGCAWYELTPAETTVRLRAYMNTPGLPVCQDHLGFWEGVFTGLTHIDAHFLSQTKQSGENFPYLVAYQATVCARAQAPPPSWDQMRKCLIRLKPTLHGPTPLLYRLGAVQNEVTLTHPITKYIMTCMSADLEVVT

As a reminder, the Ki is the dissociation constant of the complex between target and ligand, obtained from inhibition or displacement. Under “pH 6.5, 30 °C”, `C=CCCCC[C@H](NC(=O)[C@@H]1[C@@H]2[C@H](CN1C(=O)[C@H](CCCCC=C)NC(=O)OC(C)(C)C)C2(C)C)C(=O)C(N)=O` [tert-butyl N-[(2S)-1-[(1R,2S,5S)-2-{[(2S)-1-carbamoyl-1-oxooct-7-en-2-yl]carbamoyl}-6,6-dimethyl-3-azabicyclo[3.1.0]hexan-3-yl]-1-oxooct-7-en-2-yl]carbamate] came in with a Ki of 0.25 µM. In other words, the sub-micromolar range.
With `C=CCNC(=O)C(=O)[C@@H]1CCCCCCCCC[C@H](NC(=O)N[C@H](CN2Cc3sccc3S2(=O)=O)C(C)(C)C)C(=O)N2C[C@H]3[C@@H]([C@H]2C(=O)N1)C3(C)C` [2-[(3S,13S,16S,17R,19S)-3-({[(2S)-1-(1,1-dioxo-2H,3H-1,4,2-thieno[2,3-d][1,2]thiazol-2-yl)-3,3-dimethylbutan-2-yl]carbamoyl}amino)-18,18-dimethyl-2,15-dioxo-1,14-diazatricyclo[14.4.0.0^{17,19}]icosan-13-yl]-2-oxo-N-(prop-2-en-1-yl)acetamide], the Ki came to 0.007 µM.
Regarding `CCCNC(=O)C(=O)[C@@H]1CCCCCCCCC[C@H](NC(=O)N[C@H](CN(C)S(=O)(=O)c2cccs2)C(C)(C)C)C(=O)N2C[C@H]3[C@@H]([C@H]2C(=O)N1)C3(C)C` [2-[(3S,13S,16S,17R,19S)-3-({[(2S)-3,3-dimethyl-1-[methyl(thiophene-2-)sulfonamido]butan-2-yl]carbamoyl}amino)-18,18-dimethyl-2,15-dioxo-1,14-diazatricyclo[14.4.0.0^{17,19}]icosan-13-yl]-2-oxo-N-propylacetamide], the Ki (pH 6.5, 30 °C) amounted to 0.014 µM.
On the same count and under the same terms, next, `CN(C[C@@H](NC(=O)N[C@H]1CCCCCCCCC[C@@H](C(=O)C(N)=O)NC(=O)[C@@H]2[C@@H]3[C@H](CN2C1=O)C3(C)C)C(C)(C)C)S(C)(=O)=O` [2-[(3S,13S,16S,17R,19S)-3-({[(2S)-1-[methane(methyl)sulfonamido]-3,3-dimethylbutan-2-yl]carbamoyl}amino)-18,18-dimethyl-2,15-dioxo-1,14-diazatricyclo[14.4.0.0^{17,19}]icosan-13-yl]-2-oxoacetamide]: 0.003 µM.
`C=CCNC(=O)C(=O)[C@@H]1CCCCCCCCC[C@H](NC(=O)N[C@H](CN2C(=O)c3ccccc3C2=O)C(C)(C)C)C(=O)N2C[C@H]3[C@@H]([C@H]2C(=O)N1)C3(C)C` [2-[(3S,13S,16S,17R,19S)-3-({[(2S)-1-(1,3-dioxo-2,3-dihydro-1H-isoindol-2-yl)-3,3-dimethylbutan-2-yl]carbamoyl}amino)-18,18-dimethyl-2,15-dioxo-1,14-diazatricyclo[14.4.0.0^{17,19}]icosan-13-yl]-2-oxo-N-(prop-2-en-1-yl)acetamide] displayed a Ki of 0.016 µM.
With `CC(C)(C)OC(=O)N[C@H]1CCCCCCC[C@@H](C(=O)C(N)=O)NC(=O)[C@@H]2[C@@H]3[C@H](CN2C1=O)C3(C)C` [tert-butyl N-[(3S,11S,14S,15R,17S)-11-(carbamoylcarbonyl)-16,16-dimethyl-2,13-dioxo-1,12-diazatricyclo[12.4.0.0^{15,17}]octadecan-3-yl]carbamate], the inhibition constant (Ki) (pH 6.5, 30 °C) was 0.21 µM.
Regarding `CN(C)C(=O)[C@@H](NC(=O)CNC(=O)C(=O)[C@@H]1CCCCCCCCCC[C@H](NC(=O)OC(C)(C)C)C(=O)N2C[C@H]3[C@@H]([C@H]2C(=O)N1)C3(C)C)c1ccccc1` [tert-butyl N-[(3S,14S,17S,18R,20S)-14-{[({[(S)-(dimethylcarbamoyl)(phenyl)methyl]carbamoyl}methyl)carbamoyl]carbonyl}-19,19-dimethyl-2,16-dioxo-1,15-diazatricyclo[15.4.0.0^{18,20}]henicosan-3-yl]carbamate], where the note is “pH 6.5, 30 °C”, the affinity corresponds to a Ki of 0.006 µM. This Ki is about 35-fold lower than that of the compound before.
As for `C=CCNC(=O)C(=O)[C@@H]1CCCCCCCCC[C@H](NC(=O)N[C@H](CN2C(=O)CC(C)(C)CC2=O)C(C)(C)C)C(=O)N2C[C@H]3[C@@H]([C@H]2C(=O)N1)C3(C)C` [2-[(3S,13S,16S,17R,19S)-3-({[(2S)-1-(4,4-dimethyl-2,6-dioxopiperidin-1-yl)-3,3-dimethylbutan-2-yl]carbamoyl}amino)-18,18-dimethyl-2,15-dioxo-1,14-diazatricyclo[14.4.0.0^{17,19}]icosan-13-yl]-2-oxo-N-(prop-2-en-1-yl)acetamide], the Ki was 0.002 µM.
In turn, `CC(C)(C)NC(=O)C(=O)[C@@H]1CCCCCCCCCC[C@H](NC(=O)OC(C)(C)C)C(=O)N2C[C@H]3[C@@H]([C@H]2C(=O)N1)C3(C)C` [tert-butyl N-[(3S,14S,17S,18R,20S)-14-[(tert-butylcarbamoyl)carbonyl]-19,19-dimethyl-2,16-dioxo-1,15-diazatricyclo[15.4.0.0^{18,20}]henicosan-3-yl]carbamate] had a Ki (pH 6.5, 30 °C) of 6 µM.
As to `C=CCNC(=O)C(=O)[C@@H]1CCCCCCCCC[C@H](NC(=O)N[C@H](CN(C)S(=O)(=O)c2ccccn2)C(C)(C)C)C(=O)N2C[C@H]3[C@@H]([C@H]2C(=O)N1)C3(C)C` [2-[(3S,13S,16S,17R,19S)-3-({[(2S)-3,3-dimethyl-1-[methyl(pyridine-2-)sulfonamido]butan-2-yl]carbamoyl}amino)-18,18-dimethyl-2,15-dioxo-1,14-diazatricyclo[14.4.0.0^{17,19}]icosan-13-yl]-2-oxo-N-(prop-2-en-1-yl)acetamide], the Ki turned out to be 0.007 µM.
Consider `CCNC(=O)C(=O)[C@@H]1CCCCCCCCC[C@H](NC(=O)N[C@H](CN(C)S(=O)(=O)c2cccs2)C(C)(C)C)C(=O)N2C[C@H]3[C@@H]([C@H]2C(=O)N1)C3(C)C` [2-[(3S,13S,16S,17R,19S)-3-({[(2S)-3,3-dimethyl-1-[methyl(thiophene-2-)sulfonamido]butan-2-yl]carbamoyl}amino)-18,18-dimethyl-2,15-dioxo-1,14-diazatricyclo[14.4.0.0^{17,19}]icosan-13-yl]-N-ethyl-2-oxoacetamide], for which the Ki (pH 6.5, 30 °C) came out at 0.01 µM.
For the compound `CN(C)C(=O)[C@@H](NC(=O)CNC(=O)C(=O)[C@@H]1CCCCCCCCCC[C@H](NC(=O)NC(C)(C)C)C(=O)N2C[C@H]3[C@@H]([C@H]2C(=O)N1)C3(C)C)c1ccccc1` [2-[(3S,14S,17S,18R,20S)-3-[(tert-butylcarbamoyl)amino]-19,19-dimethyl-2,16-dioxo-1,15-diazatricyclo[15.4.0.0^{18,20}]henicosan-14-yl]-N-({[(S)-(dimethylcarbamoyl)(phenyl)methyl]carbamoyl}methyl)-2-oxoacetamide], the Ki (pH 6.5, 30 °C) came out at 0.006 µM.
As to `CC(C)(C)OC(=O)[C@@H](NC(=O)N[C@H]1CCCCCCCCCC[C@@H](C(=O)C(N)=O)NC(=O)[C@@H]2[C@@H]3[C@H](CN2C1=O)C3(C)C)C(C)(C)C` [tert-butyl (2S)-2-({[(3S,14S,17S,18R,20S)-14-(carbamoylcarbonyl)-19,19-dimethyl-2,16-dioxo-1,15-diazatricyclo[15.4.0.0^{18,20}]henicosan-3-yl]carbamoyl}amino)-3,3-dimethylbutanoate], affinity (pH 6.5, 30 °C) was put at a Ki of 0.037 µM.
Still for that read-out and setting: next, `CC(C)(C)OC(=O)N[C@H]1CCCCCCCC[C@@H](C(=O)C(N)=O)NC(=O)[C@@H]2[C@@H]3[C@H](CN2C1=O)C3(C)C` [tert-butyl N-[(3S,12S,15S,16R,18S)-12-(carbamoylcarbonyl)-17,17-dimethyl-2,14-dioxo-1,13-diazatricyclo[13.4.0.0^{16,18}]nonadecan-3-yl]carbamate]: 0.036 µM.
As for `C=CCNC(=O)C(=O)[C@@H]1CCCCCCCCC[C@H](NC(=O)N[C@H](CN2CCC(C)(C)CC2=O)C(C)(C)C)C(=O)N2C[C@H]3[C@@H]([C@H]2C(=O)N1)C3(C)C` [2-[(3S,13S,16S,17R,19S)-3-({[(2S)-1-(4,4-dimethyl-2-oxopiperidin-1-yl)-3,3-dimethylbutan-2-yl]carbamoyl}amino)-18,18-dimethyl-2,15-dioxo-1,14-diazatricyclo[14.4.0.0^{17,19}]icosan-13-yl]-2-oxo-N-(prop-2-en-1-yl)acetamide], the Ki was determined as 0.002 µM.
